Numbers after ± are expanded uncertainties.
Details: Liquid, Vibrating tube method

CCCCCCCC(=O)OCC(COC(=O)CCCCCCC)(COC(=O)CCCCCCC)COC(=O)CCCCCCC [pentaerythritol tetraoctanoate]
Details	mass density [kg/m3]
323.15 K, 31267 kPa	960.2 ± 1.2
323.15 K, 31296 kPa	960.3 ± 1.2
323.15 K, 31325 kPa	960.2 ± 1.2
323.15 K, 31360 kPa	960.3 ± 1.2
323.15 K, 31389 kPa	960.2 ± 1.2
323.15 K, 31418 kPa	960.1 ± 1.2
323.15 K, 31452 kPa	960.2 ± 1.2
323.15 K, 31481 kPa	960.3 ± 1.2
323.15 K, 31510 kPa	960.4 ± 1.2
323.15 K, 31540 kPa	960.4 ± 1.2
323.15 K, 31575 kPa	960.3 ± 1.2
323.15 K, 31604 kPa	960.4 ± 1.2
323.15 K, 31640 kPa	960.3 ± 1.2
323.15 K, 31669 kPa	960.4 ± 1.2
323.15 K, 31699 kPa	960.3 ± 1.2
323.15 K, 31731 kPa	960.4 ± 1.2
323.15 K, 31761 kPa	960.4 ± 1.2
323.15 K, 31785 kPa	960.4 ± 1.2
323.15 K, 31827 kPa	960.5 ± 1.2
323.15 K, 31856 kPa	960.5 ± 1.2
323.15 K, 31892 kPa	960.5 ± 1.2
323.15 K, 31922 kPa	960.5 ± 1.2
323.15 K, 31952 kPa	960.6 ± 1.2
323.15 K, 31987 kPa	960.6 ± 1.2
323.15 K, 32018 kPa	960.7 ± 1.2
323.15 K, 32048 kPa	960.5 ± 1.2
323.15 K, 32084 kPa	960.6 ± 1.2
323.15 K, 32115 kPa	960.6 ± 1.2
323.15 K, 32147 kPa	960.7 ± 1.2
323.15 K, 32178 kPa	960.7 ± 1.2
323.15 K, 32208 kPa	960.8 ± 1.2
323.15 K, 32244 kPa	960.7 ± 1.2
323.15 K, 32275 kPa	960.8 ± 1.2
323.15 K, 32305 kPa	960.6 ± 1.2
323.15 K, 32343 kPa	960.8 ± 1.2
323.15 K, 32374 kPa	960.8 ± 1.2
323.15 K, 32404 kPa	960.6 ± 1.2
323.15 K, 32442 kPa	960.8 ± 1.2
323.15 K, 32467 kPa	960.8 ± 1.2
323.15 K, 32504 kPa	961 ± 1.2
323.15 K, 32542 kPa	960.9 ± 1.2
323.15 K, 32574 kPa	960.9 ± 1.2
323.15 K, 32605 kPa	961 ± 1.2
323.15 K, 32642 kPa	960.9 ± 1.2
323.15 K, 32706 kPa	961 ± 1.2
323.15 K, 32744 kPa	961.1 ± 1.2
323.15 K, 32776 kPa	961.1 ± 1.2
323.15 K, 32838 kPa	961.1 ± 1.2
323.15 K, 32877 kPa	961.1 ± 1.2
323.15 K, 32909 kPa	961 ± 1.2
323.15 K, 32941 kPa	961.1 ± 1.2
323.15 K, 32980 kPa	961 ± 1.2
323.15 K, 33012 kPa	961.2 ± 1.2
323.15 K, 33050 kPa	961.1 ± 1.2
323.15 K, 33083 kPa	961.2 ± 1.2
323.15 K, 33115 kPa	961.2 ± 1.2
323.15 K, 33147 kPa	961.2 ± 1.2
323.15 K, 33186 kPa	961.2 ± 1.2
323.15 K, 33219 kPa	961.3 ± 1.2
323.15 K, 33258 kPa	961.2 ± 1.2
323.15 K, 33291 kPa	961.3 ± 1.2
323.15 K, 33324 kPa	961.3 ± 1.2
323.15 K, 33363 kPa	961.4 ± 1.2
323.15 K, 33396 kPa	961.5 ± 1.2
323.15 K, 33429 kPa	961.3 ± 1.2
323.15 K, 33470 kPa	961.4 ± 1.2
323.15 K, 33503 kPa	961.3 ± 1.2
323.15 K, 33536 kPa	961.6 ± 1.2
323.15 K, 33576 kPa	961.4 ± 1.2
323.15 K, 33610 kPa	961.5 ± 1.2
323.15 K, 33644 kPa	961.5 ± 1.2
323.15 K, 33685 kPa	961.5 ± 1.2
323.15 K, 33720 kPa	961.6 ± 1.2
323.15 K, 33755 kPa	961.5 ± 1.2
323.15 K, 33797 kPa	961.6 ± 1.2
323.15 K, 33833 kPa	961.5 ± 1.2
323.15 K, 33870 kPa	961.6 ± 1.2
323.15 K, 33916 kPa	961.7 ± 1.2
323.15 K, 33952 kPa	961.7 ± 1.2
323.15 K, 33982 kPa	961.7 ± 1.2
323.15 K, 34010 kPa	961.8 ± 1.2
323.15 K, 34034 kPa	961.7 ± 1.2
323.15 K, 34058 kPa	961.7 ± 1.2
323.15 K, 34086 kPa	961.7 ± 1.2
323.15 K, 34110 kPa	961.8 ± 1.2
323.15 K, 34134 kPa	961.8 ± 1.2
323.15 K, 34159 kPa	961.8 ± 1.2
323.15 K, 34188 kPa	961.9 ± 1.2
323.15 K, 34213 kPa	961.9 ± 1.2
323.15 K, 34242 kPa	961.8 ± 1.2
323.15 K, 34268 kPa	961.9 ± 1.2
323.15 K, 34294 kPa	961.8 ± 1.2
323.15 K, 34321 kPa	962.1 ± 1.2
323.15 K, 34354 kPa	962 ± 1.2
323.15 K, 34382 kPa	961.9 ± 1.2
323.15 K, 34411 kPa	962 ± 1.2
323.15 K, 34448 kPa	962.1 ± 1.2
323.15 K, 34472 kPa	961.9 ± 1.2
323.15 K, 34473 kPa	962 ± 1.2
323.15 K, 34474 kPa	962 ± 1.2
323.16 K, 603.67 kPa	941 ± 1.1
323.16 K, 875.73 kPa	941.2 ± 1.1
323.16 K, 892.76 kPa	941.2 ± 1.1
323.16 K, 910.31 kPa	941.3 ± 1.1
323.16 K, 929.42 kPa	941.3 ± 1.1
323.16 K, 952.34 kPa	941.3 ± 1.1
323.16 K, 1561.9 kPa	941.8 ± 1.1
323.16 K, 1605.8 kPa	941.7 ± 1.1
323.16 K, 1638 kPa	941.7 ± 1.1
323.16 K, 1659.1 kPa	941.7 ± 1.1
323.16 K, 1674.9 kPa	941.8 ± 1.1
323.16 K, 1688.1 kPa	941.8 ± 1.1
323.16 K, 2395.8 kPa	942.3 ± 1.1
323.16 K, 2562.1 kPa	942.5 ± 1.2
323.16 K, 2571.5 kPa	942.4 ± 1.1
323.16 K, 2579.5 kPa	942.4 ± 1.1
323.16 K, 2587.6 kPa	942.5 ± 1.2
323.16 K, 3525.4 kPa	943 ± 1.2
323.16 K, 3596.1 kPa	943.1 ± 1.2
323.16 K, 3609.1 kPa	943.2 ± 1.2
323.16 K, 3622.8 kPa	943.1 ± 1.2
323.16 K, 3638.9 kPa	943.2 ± 1.2
323.16 K, 3652.2 kPa	943.2 ± 1.2
323.16 K, 3663.5 kPa	943.2 ± 1.2
323.16 K, 3682.5 kPa	943.1 ± 1.2
323.16 K, 3696.6 kPa	943.1 ± 1.2
323.16 K, 3864.6 kPa	943.3 ± 1.2
323.16 K, 3879.5 kPa	943.3 ± 1.2
323.16 K, 3913.1 kPa	943.3 ± 1.2
323.16 K, 3928.7 kPa	943.4 ± 1.2
323.16 K, 3945.2 kPa	943.3 ± 1.2
323.16 K, 3960.6 kPa	943.3 ± 1.2
323.16 K, 3976.2 kPa	943.4 ± 1.2
323.16 K, 3991.8 kPa	943.3 ± 1.2
323.16 K, 4010.5 kPa	943.3 ± 1.2
323.16 K, 4025.5 kPa	943.3 ± 1.2
323.16 K, 4044.2 kPa	943.5 ± 1.2
323.16 K, 4061 kPa	943.5 ± 1.2
323.16 K, 4225.4 kPa	943.5 ± 1.2
323.16 K, 4242.4 kPa	943.6 ± 1.2
323.16 K, 4245.7 kPa	943.5 ± 1.2
323.16 K, 4456.7 kPa	943.7 ± 1.2
323.16 K, 4480.6 kPa	943.7 ± 1.2
323.16 K, 4501.4 kPa	943.6 ± 1.2
323.16 K, 4587.3 kPa	943.7 ± 1.2
323.16 K, 4633.2 kPa	943.7 ± 1.2
323.16 K, 4694.8 kPa	943.8 ± 1.2
323.16 K, 4742.6 kPa	943.9 ± 1.2
